Experiment [1] deals with T1, Adenosine receptor A2b (Homo sapiens, UniProt P29275).
T1 sequence (P29275 whole entry): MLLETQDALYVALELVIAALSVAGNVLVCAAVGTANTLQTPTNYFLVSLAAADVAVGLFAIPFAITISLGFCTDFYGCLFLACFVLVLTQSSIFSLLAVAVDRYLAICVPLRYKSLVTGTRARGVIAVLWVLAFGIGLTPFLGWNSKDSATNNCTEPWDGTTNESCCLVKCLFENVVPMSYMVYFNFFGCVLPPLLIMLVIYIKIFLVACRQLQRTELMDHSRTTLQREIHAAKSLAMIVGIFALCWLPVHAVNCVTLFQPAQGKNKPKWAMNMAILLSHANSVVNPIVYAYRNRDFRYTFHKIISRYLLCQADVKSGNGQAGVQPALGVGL
Nature of the experiment: Displacement of [125I]I-ABOPX from human recombinant adenosine A2B receptor expressed in HEK293 cells. The class given is cell-based. (In a radioligand displacement assay an active substance lowers the binding of a labelled ligand.)

For experiment [2], the target named is T1, Adenosine receptor A2b. Nature of the experiment: Displacement of [3H]PSB-603 from human recombinant adenosine A2B receptor expressed in CHO cells. The format is cell-based.
The target in the next experiment is T2, Adenosine receptor A3 (Homo sapiens, UniProt P0DMS8).
T2 sequence (P0DMS8 whole entry): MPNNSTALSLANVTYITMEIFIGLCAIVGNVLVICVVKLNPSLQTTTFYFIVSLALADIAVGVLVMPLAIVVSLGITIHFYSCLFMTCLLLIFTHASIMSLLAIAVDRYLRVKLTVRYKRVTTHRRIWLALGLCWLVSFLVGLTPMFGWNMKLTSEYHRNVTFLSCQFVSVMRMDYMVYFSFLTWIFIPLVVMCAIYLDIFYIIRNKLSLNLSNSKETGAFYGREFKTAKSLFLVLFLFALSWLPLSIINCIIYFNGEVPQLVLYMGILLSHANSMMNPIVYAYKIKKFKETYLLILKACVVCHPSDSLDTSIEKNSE
Nature of the experiment: Displacement of [3H]PSB-11 from human recombinant adenosine A3 receptor expressed in CHO cells. The format is cell-based.

In experiment [3] the target is T3, Adenosine receptor A2a (Homo sapiens, UniProt P29274). Nature of the experiment: Displacement of [3H]MSX-2 from human recombinant adenosine A2A receptor expressed in CHO cells at 10 uM. The class given is cell-based.
T3 sequence (P29274 whole entry): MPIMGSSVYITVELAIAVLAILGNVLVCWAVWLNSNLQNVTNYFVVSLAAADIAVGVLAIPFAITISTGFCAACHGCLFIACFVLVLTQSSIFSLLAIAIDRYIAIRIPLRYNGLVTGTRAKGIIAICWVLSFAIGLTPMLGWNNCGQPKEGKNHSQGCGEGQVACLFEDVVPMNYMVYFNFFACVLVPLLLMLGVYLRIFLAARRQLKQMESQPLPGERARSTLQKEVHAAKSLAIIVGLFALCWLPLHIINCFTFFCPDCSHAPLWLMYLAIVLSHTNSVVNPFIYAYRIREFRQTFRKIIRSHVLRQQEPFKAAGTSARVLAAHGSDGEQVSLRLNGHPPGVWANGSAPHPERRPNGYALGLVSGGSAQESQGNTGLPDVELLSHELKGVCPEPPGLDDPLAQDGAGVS
Experiment [4] concerns the target T1, Adenosine receptor A2b. In words: Antagonist activity at adenosine A2B receptor in human Jurkat T cells assessed as inhibition of NECA-induced increase in intracellular calcium concentration by fluorimetric measurement in presence of MSX-2. The format is functional, cell-based. (Calcium flux is commonly read through the fluorescence of an indicator in the cells.)

Experiment [5] addresses T1, Adenosine receptor A2b. Nature of the experiment: Binding affinity to human recombinant adenosine A2B receptor expressed in CHO cells by kinetic experiment. The class given is cell-based.
Experiment [6] concerns the target Adenosine receptor A2a (Rattus norvegicus, UniProt P30543). Nature of the experiment: Displacement of [3H]MSX-2 from rat brain striatum adenosine A2A receptor.
Experiment [7] concerns the target T4, Adenosine receptor A1 (Homo sapiens) (UniProt P30542).
T4 sequence (whole entry): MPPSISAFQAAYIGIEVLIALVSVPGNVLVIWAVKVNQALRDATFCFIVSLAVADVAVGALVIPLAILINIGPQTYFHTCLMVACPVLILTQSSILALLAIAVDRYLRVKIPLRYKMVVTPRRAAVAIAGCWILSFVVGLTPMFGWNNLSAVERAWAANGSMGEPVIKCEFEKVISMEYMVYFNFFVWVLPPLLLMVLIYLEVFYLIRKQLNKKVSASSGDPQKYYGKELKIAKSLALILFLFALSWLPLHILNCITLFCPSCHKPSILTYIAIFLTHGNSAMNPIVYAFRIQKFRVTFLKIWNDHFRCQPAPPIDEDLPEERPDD
Nature of the experiment: Displacement of [3H]CCPA from human recombinant adenosine A1 receptor expressed in CHO cells at 10 uM. The class given is cell-based.

Experiment [8] has as its target T5, Adenosine receptor A2b (Homo sapiens) (UniProt P29275).
T5 sequence (whole entry): T1 sequence (P29275 whole entry)
Particulars: CHO, 0.3 nM.

Experiment [9] deals with T1, Adenosine receptor A2b. Nature of the experiment: Binding affinity to human recombinant adenosine A2B receptor expressed in CHO cells by saturation experiment. The format is cell-based.
The target in experiment [10] is T6, Adenosine receptor A3 (Homo sapiens) (UniProt P0DMS8).
T6 sequence (whole entry): T2 sequence (P0DMS8 whole entry)
In words: Displacement of [3H]PSB-11 from human recombinant adenosine A3 receptor expressed in CHO cells at 10 uM. The format is cell-based.

Experiment [11] concerns the target T7, Adenosine receptor A1 (Homo sapiens, UniProt P30542).
T7 sequence (P30542 whole entry): T4 sequence (whole entry)
Nature of the experiment: Displacement of [3H]CCPA from human adenosine A1 receptor expressed in CHO cells. The format is cell-based.

Experiment [12] has as its target T3, Adenosine receptor A2a. In words: Displacement of [3H]MSX-2 from human recombinant adenosine A2A receptor expressed in CHO cells. The class given is cell-based.
For experiment [13], the target named is Adenosine receptor A2a (Rattus norvegicus) (UniProt P30543). In words: Displacement of [3H]MSX-2 from rat brain striatum adenosine A2A receptor at 10 uM.
Sequence of Adenosine receptor A2a (Rattus norvegicus) (P30543 whole entry): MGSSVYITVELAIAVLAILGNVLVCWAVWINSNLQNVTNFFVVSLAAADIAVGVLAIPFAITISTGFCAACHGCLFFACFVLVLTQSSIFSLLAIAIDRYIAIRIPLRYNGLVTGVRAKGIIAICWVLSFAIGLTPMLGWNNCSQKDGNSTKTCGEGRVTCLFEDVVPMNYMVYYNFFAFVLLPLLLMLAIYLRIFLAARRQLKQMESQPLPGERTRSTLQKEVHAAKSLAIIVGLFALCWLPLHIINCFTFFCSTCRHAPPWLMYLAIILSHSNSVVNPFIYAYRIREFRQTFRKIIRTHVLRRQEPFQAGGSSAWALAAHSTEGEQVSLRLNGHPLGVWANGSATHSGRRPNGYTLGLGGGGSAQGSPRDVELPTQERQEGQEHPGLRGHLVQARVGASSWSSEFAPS
For experiment [14], the target named is T8, Adenosine receptor A1 (Rattus norvegicus, UniProt P25099).
T8 sequence (P25099 whole entry): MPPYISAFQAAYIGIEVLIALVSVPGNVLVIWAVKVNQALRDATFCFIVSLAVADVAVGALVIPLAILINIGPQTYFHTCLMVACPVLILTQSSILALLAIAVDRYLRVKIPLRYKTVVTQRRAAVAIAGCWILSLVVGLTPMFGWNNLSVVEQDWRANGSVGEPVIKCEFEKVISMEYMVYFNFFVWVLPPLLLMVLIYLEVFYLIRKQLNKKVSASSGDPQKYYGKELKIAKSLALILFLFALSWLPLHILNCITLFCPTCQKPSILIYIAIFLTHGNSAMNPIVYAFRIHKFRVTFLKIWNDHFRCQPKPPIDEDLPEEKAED
Nature of the experiment: Displacement of [3H]CCPA from rat brain cortex adenosine A1 receptor.

Experiment [15] concerns the target T9, Adenosine receptor A2b (Mus musculus, UniProt Q60614).
T9 sequence (Q60614 whole entry): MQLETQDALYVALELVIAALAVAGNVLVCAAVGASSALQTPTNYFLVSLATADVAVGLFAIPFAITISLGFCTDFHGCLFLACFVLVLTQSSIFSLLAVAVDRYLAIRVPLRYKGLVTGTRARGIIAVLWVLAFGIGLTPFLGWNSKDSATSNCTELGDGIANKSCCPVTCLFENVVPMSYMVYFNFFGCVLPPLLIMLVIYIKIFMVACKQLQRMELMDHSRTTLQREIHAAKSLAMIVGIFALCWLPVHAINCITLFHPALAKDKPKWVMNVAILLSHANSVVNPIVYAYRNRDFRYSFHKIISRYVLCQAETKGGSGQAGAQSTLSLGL
Nature of the experiment: Displacement of [3H]PSB-603 from mouse recombinant adenosine A2B receptor expressed in CHO cells. The class given is cell-based.

Experiment [16] has as its target T5, Adenosine receptor A2b (Homo sapiens). The following applies: CHO, 0.3 nM. The source holds these as a separate data set.
Experiment [17] deals with T10, Adenosine receptor A2b (Mus musculus) (UniProt Q60614).
T10 sequence (whole entry): T9 sequence (Q60614 whole entry)
In words: Activity at mouse recombinant adenosine A2B receptor expressed in CHO cells assessed per mg of protein. The format is cell-based.

The target of experiment [18] is T11, Adenosine receptor A1 (Rattus norvegicus) (UniProt P25099).
T11 sequence (whole entry): T8 sequence (P25099 whole entry)
In words: Displacement of [3H]CCPA from rat brain cortex adenosine A1 receptor at 10 uM.

Bounds are passed on as bounds.

One may read the Ki as a measure of affinity in units of concentration, obtained from inhibition or displacement. The inhibition is how much of the control response was suppressed. As usually defined, the IC50 is the concentration at which inhibition is half-maximal. Usually Kd stands for the free concentration of one partner at which half of the binding sites on the other are occupied at equilibrium, for simple one-to-one binding.

Sequence of Adenosine receptor A2a (Rattus norvegicus, UniProt P30543) (P30543 whole entry): as the sequence (P30543 whole entry) above

For the compound `Nc1nc(Cl)nc2c1ncn2[C@@H]1O[C@H](CO)[C@@H](O)[C@H]1O`, the Ki on Adenosine receptor A2b [1] is 25500 nM; at Adenosine receptor A2b [2], 21400 nM.

Turning to `CCCn1c(=O)[nH]c2nc(-c3ccc(S(=O)(=O)N4CCN(c5ccc(Cl)cc5)CC4)cc3)[nH]c2c1=O`, the Ki at Adenosine receptor A3 is above 10000 nM; at Adenosine receptor A2a [6], above 10000 nM; at Adenosine receptor A1 [11] it was above 10000 nM; at Adenosine receptor A2a [12] it was above 10000 nM; at Adenosine receptor A1 [14] it was above 10000 nM; at Adenosine receptor A2b [2], 0.553 nM. The inhibition at Adenosine receptor A2a [3] is 7%; in [7] it was 10%; in experiment [10] it was 10%; in [13], 19%; in experiment [18], 18%. At Adenosine receptor A2b [4], the IC50 was determined as 1.13 nM. For the same compound, the Kd on Adenosine receptor A2b [5] was 0.652 nM; on Adenosine receptor A2b [9] it was 0.403 nM; at Adenosine receptor A2b [15], 0.351 nM. The T1/2 in experiment [8] came to 12.8 min; in [16], 24.2 min. The Bmax in experiment [17] was 645 fmol.

For the origin of these results see ChEMBL document CHEMBL1137016, “1-alkyl-8-(piperazine-1-sulfonyl)phenylxanthines: development and characterization of adenosine A2B receptor antagonists and a new radioligand with subnanomolar affinity and subtype specificity” (J Med Chem, 2009).
